What all share (type): cell-based
The test system of assay [1] is SARS-COV-2.
Assay [2] has as its system inflammatory response induced by SARS-COV-2. Nature of the assay: Inflammatory and immune-sensing gene expression in infected Calu-3a cells. To be noted: data not shown.
Assay [3] concerns HECT E3 ligases, ACE2, TMPRSS2. Nature of the assay: Expression of HECT E3 ligases, ACE2 and TMPRSS2 in Vero E6 and Calu-3a cells (RT-qPCR). On the technique in general: In qPCR the cycle at which signal appears reflects the starting amount.
The subject of assay [4] is SARS-COV-2. The source holds these as a separate data set.
In assay [5] the test system is SARS-COV-2. Put plainly: microbe, parasite or virus in culture.

For the compound `CC(C)(CO)[C@@H](O)C(=O)NCCC(=O)NCCSSCCNC(=O)CCNC(=O)[C@H](O)C(C)(C)CO` [pantethine, (2R,2′ R)—N,N′-(3,12-Dioxo-7,8-dithia-4,11-diazatetradecane-1,14-diyl)bis(2,4-dihydroxy-3,3-dimethylbutanamide)], the “expression of the viral Spike and Nucleocapsid proteins within infected cells” value in assay [1] is given as “reduce significantly”. In assay [2], the “inflammatory response induced by SARS-COV-2” value is on record as “reduced”. Moreover, in assay [3], the “ACE2 and TMPRSS2 expression” value is “no significant effect”; the “HECT E3 ligases expression” value is on record as “no effects”; the “infection-induced increase of TMPRSS2 expression” value was “inhibited”. Besides, the “HECT E3 ligase-increase induced by SARS-CoV-2 infection” value in assay [3] (infected cells in vitro, data not shown) is recorded as “decreased”. In addition, in assay [4], the “infection of Calu-3a cells by SARS-COV-2” value was “reduced significantly and dose dependently”. For the same compound, the “infection of Vero E6 cells by SARS-COV-2” value in assay [5] was “reduced significantly and dose dependently”. For the same compound, the inhibition at 100 µM in assay [5] (Severe acute respiratory syndrome coronavirus 2, Vero C1008, 72 h, 100 μM, read-out: inhibition of the replication of SARS-COV-2 (Spike protein staining)) was about 76%. The inhibition at 1000 µM in assay [5] (Severe acute respiratory syndrome coronavirus 2, Vero C1008, 72 h, 1000 μM, read-out: inhibition of the replication of SARS-COV-2 (Spike protein staining)) is about 98%.

For orientation: inhibition means the drop in the measured response relative to a control, in per cent.
